Target: T1, Nutrient-deprivation autophagy factor-1 (NAF-1, miner1) (Homo sapiens, UniProt Q8N5K1)
T1 sequence (Q8N5K1 57-135 limits assumed): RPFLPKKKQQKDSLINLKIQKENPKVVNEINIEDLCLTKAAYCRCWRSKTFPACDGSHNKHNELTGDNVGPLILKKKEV
Assay: scintillation proximity assay, [3H]rosiglitazone displacement
Type: binding

NL-1
IC50: 29.8 µM

From PMC6542280 (Bioorganic & medicinal chemistry letters, 2019)
